From article PMC10022191, “Safety, tolerability, pharmacokinetics, and antiviral activity of the novel core protein allosteric modulator ZM-H1505R (Canocapavir) in chronic hepatitis B patients: a randomized multiple-dose escalation trial” (BMC Medicine, 2023)

Experiments:
genotype D HBV = assay: primary human hepatocyte (PHH) assay, extracellular HBV DNA by qPCR
Method: To determine the anti-HBV activity of ZM-H1505R, the primary human hepatocyte (PHH) assay was performed in vitro. One day after infection with genotype D HBV, ZM-H1505R was added to the culture medium of PHH. The culture medium supplemented with ZM-H1505R was changed every two days. The culture supernatants were collected, of which the extracellular HBV DNA content was measured by qPCR.

[1] = phase 1b trial: plasma pharmacokinetics in CHB patients; conditions: for mean plasma trough concentration relative to protein-binding adjusted HBV DNA EC50 (135 ng/mL): day 28
Method: Blood samples for Canocapavir PK analysis were collected at different time points, and were collected and placed into a vacutainer with an anticoagulant (K2-EDTA), followed by centrifugation at 2,000 g and 4 °C for 10 min to collect the plasma.
All of these parameters in the treatment cohorts were analyzed using the descriptive statistics methods provided by SAS 9.1 software (Cary, NC, USA). The dose proportionality of Canocapavir was evaluated by the power model and the linear fixed-effect model. Descriptive analysis was used for safety, tolerability and antiviral activity indexes. Please see Additional file 1 for the detailed methodology.
The concentration of Canocapavir was determined using a validated high-performance liquid chromatography-tandem mass spectrometry method of FRONTAGE Laboratories (Shanghai, China), with a detection range of 10–10,000 ng/mL.
Blood samples for Canocapavir PK analysis were collected at different time points, including preadministration (30 min predosing) and 0.5, 1, 2, 3, 4, 6, 8, 12, and 24 h postdosing on day 1; predosing on days 8, 15, 22, 27, and 28; and 0.5, 1, 2, 3, 4, 6, 8, 12, 24, 48, and 72 h postdosing on day 28.

[2] = cited from earlier work

O=C1CO[C@H](c2cn(-c3ccc(Br)cc3)nc2-c2ccc(F)cc2)N1CCc1ccc2[nH]c(=O)[nH]c2c1 [Canocapavir]
protein binding-adjusted HBV DNA EC50 (genotype D HBV; protein-binding adjusted): 0.135 mg/L | protein binding-adjusted HBV DNA EC90 (genotype D HBV; protein-binding adjusted): 0.937 mg/L | EC50 (genotype D HBV; read-out: EC50, inhibition of extracellular HBV DNA generation, PHH infected with genotype D HBV): 0.0123 µM | EC90 (genotype D HBV; read-out: EC90, inhibition of extracellular HBV DNA generation, PHH infected with genotype D HBV): 0.0833 µM | mean plasma trough concentration relative to protein-binding adjusted HBV DNA EC50 (135 ng/mL) ([1]; 100 mg q.d.): 7.0 fold | mean plasma trough concentration relative to protein-binding adjusted HBV DNA EC50 (135 ng/mL) ([1]; 200 mg q.d.): 14.6 fold | power model slope (regression coefficient) of exposure (Cmax and AUC) vs dose ([1]; human, in vivo): 0.82–1.14 | time to maximum concentration (Tmax) ([1]; human, in vivo): 2 to 3 h | AUC0-∞ ([1]; human, in vivo, 50 mg): 25,625.6 ± 15,804.7 h·ng/mL | CL/F ([1]; human, in vivo, 50 mg): 3.4 ± 1.5 L/h | Vz/F ([1]; human, in vivo, 50 mg): 61.4 ± 23.0 L | t1/2 ([1]; human, in vivo, 50 mg): 13.0 ± 1.9 h | AUC0-∞ ([1]; human, in vivo, 100 mg): 59,399.0 ± 18,159.0 h·ng/mL | CL/F ([1]; human, in vivo, 100 mg): 2.5 ± 0.6 L/h | Tmax ([1]; human, in vivo, 100 mg): 3.0 (2.0, 4.0) h | Vz/F ([1]; human, in vivo, 100 mg): 42.3 ± 10.9 L | t1/2 ([1]; human, in vivo, 100 mg): 12.1 ± 3.7 h | AUC0-∞ ([1]; human, in vivo, 200 mg): 120,090.0 ± 57,318.9 h·ng/mL | CL/F ([1]; human, in vivo, 200 mg): 3.3 ± 2.0 L/h | Vz/F ([1]; human, in vivo, 200 mg): 73.6 ± 43.4 L | mean t1/2 after the last dosage ([1]; human, in vivo, 200 mg): 12.1 to 15.6 h | t1/2 ([1]; human, in vivo, 200 mg): 15.6 ± 2.3 h | accumulation rate after multiple administration ([2]; healthy subjects): 1.7–2.3 | dose proportionality of mean plasma AUC and Cmax ([2]; healthy subjects): increased in a dose-proportional manner | food effect on drug absorption ([2]; healthy subjects): Food had an effect on the drug absorption | half-life after multiple administration ([2]; healthy subjects): 12.2 to 21.7 h | margin between plasma exposure and anti-HBV activity EC50 in vitro ([2]; healthy subjects): 11.2–37.5 fold | most common AE ([2]; healthy subjects): increased ALT | safety and tolerability in healthy subjects ([2]; single doses 25–450 mg, multiple doses 75–300 mg q.d. for 14 days): safe and well tolerated
